Read-outs that look alike come from different tables or passages of the source. Some results are limits rather than exact numbers.

The target in one experiment is T1, cyclooxygenase (Rattus norvegicus, UniProt Q63921).
T1 construct: Single cell suspensions of RBL-1 cells are homogenized to obtain the microsomal fraction containing lipoxygenase and cyclooxygenase; endogenous in cells; host or cells: RBL-1 (rat basophilic leukemia) cells, homogenate / microsomal fraction
T1 sequence (Q63921 27-602): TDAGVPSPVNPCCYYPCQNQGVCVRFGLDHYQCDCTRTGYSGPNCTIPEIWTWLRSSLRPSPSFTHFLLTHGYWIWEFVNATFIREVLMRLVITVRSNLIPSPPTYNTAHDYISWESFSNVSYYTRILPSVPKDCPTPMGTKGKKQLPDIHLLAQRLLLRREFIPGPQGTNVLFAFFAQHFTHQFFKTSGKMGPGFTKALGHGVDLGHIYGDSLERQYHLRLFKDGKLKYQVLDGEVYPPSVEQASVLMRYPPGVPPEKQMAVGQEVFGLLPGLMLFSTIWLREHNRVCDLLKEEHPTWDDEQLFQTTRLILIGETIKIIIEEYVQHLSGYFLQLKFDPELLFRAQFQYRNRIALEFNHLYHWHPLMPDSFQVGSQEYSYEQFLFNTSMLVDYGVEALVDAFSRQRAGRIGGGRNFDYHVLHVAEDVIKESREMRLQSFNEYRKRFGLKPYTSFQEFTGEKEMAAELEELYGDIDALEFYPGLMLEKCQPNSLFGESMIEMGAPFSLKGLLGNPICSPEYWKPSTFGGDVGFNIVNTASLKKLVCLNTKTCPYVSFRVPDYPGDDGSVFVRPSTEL
In words: Inhibition of cyclooxygenase derived from rat basophilic leukemia (RBL-1) cells, formation of product PDG2 (C1). It counts as biochemical. As to conditions: RBL-1 homogenate; for IC50: C1, PDG2; for inhibition at 1 µM: dose of 1 μM, 5 min preincubation, 15 min incubation at 37° C, read-out: In vitro % Inhibition, C1 (cyclooxygenase product formation). As for the experimental part:
(§1) The primary screening test used is a determination of the inhibition of lipoxygenase and cyclooxygenase derived from rat basophilic leukemia (RBL-1) cells. The test was carried out according to the following procedure:
(§2) Single cell suspensions of RBL-1 cells are homogenized to obtain the microsomal fraction containing lipoxygenase and cyclooxygenase. Test compounds are added to the enzyme-containing homogenate for a 5 min preincubation period at 37° C. prior to the addition of ^14 C-arachidonic acid substrate. Following incubation at 37° C. for 15 min, the reaction is stopped by the addition of 2M formic acid and the enzyme-substrate products are extracted into chloroform. An aliquot of the extract is evaporated to dryness, reconstituted in ether to 1/10 original volume, spotted on thin layer chromatography plates and chromatographed. The peak areas of radioactivity representing the products are located by scanning the plates. The quantity of products formed is estimated by measuring the height of the radioactivity peaks observed on the chromatographic scans. Alternatively, the areas of radioactivity are scraped from the plate and the ^14 C quantitated by scintillation counting.

In a further experiment the target is T2, lipoxygenase (Rattus norvegicus, UniProt P12527).
T2 construct: Single cell suspensions of RBL-1 cells are homogenized to obtain the microsomal fraction containing lipoxygenase and cyclooxygenase; endogenous in cells; host or cells: RBL-1 (rat basophilic leukemia) cells, homogenate / microsomal fraction
T2 sequence (P12527 1-673): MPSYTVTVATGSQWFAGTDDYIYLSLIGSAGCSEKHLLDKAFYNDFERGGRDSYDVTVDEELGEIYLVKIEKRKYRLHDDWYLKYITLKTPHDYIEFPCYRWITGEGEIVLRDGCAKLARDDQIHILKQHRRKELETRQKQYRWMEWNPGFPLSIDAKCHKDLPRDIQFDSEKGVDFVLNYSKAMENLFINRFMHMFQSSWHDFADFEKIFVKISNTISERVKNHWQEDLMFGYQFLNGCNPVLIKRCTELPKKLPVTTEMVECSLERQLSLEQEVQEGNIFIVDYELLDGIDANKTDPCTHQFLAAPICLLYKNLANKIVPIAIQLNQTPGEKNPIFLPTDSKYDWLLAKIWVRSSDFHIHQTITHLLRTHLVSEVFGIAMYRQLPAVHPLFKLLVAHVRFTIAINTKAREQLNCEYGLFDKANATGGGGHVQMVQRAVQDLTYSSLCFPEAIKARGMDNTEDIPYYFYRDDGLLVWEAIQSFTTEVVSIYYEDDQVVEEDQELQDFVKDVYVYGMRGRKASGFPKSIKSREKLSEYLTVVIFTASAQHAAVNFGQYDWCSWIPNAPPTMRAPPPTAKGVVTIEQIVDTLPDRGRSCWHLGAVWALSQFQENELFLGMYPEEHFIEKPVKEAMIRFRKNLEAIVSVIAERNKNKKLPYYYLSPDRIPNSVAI
In words: Inhibition of lipoxygenase derived from rat basophilic leukemia (RBL-1) cells, formation of products 5,12-di-HETE (L1) and 5-HETE (L2). The experiment is classed as biochemical. The method, then:
as §1, §2

The subject of experiment [1] is STS-A component of immunologically induced bronchoconstriction. In words: Effect on the STS-A component of immunologically induced bronchoconstriction in guinea pigs. The following applies: 4 hrs., at 1 mg/kg orally, indomethacin + chlorpheniramine medicated, antigen challenge. It counts as in vivo. The method, then:
The test was carried out according to the following procedure:
Two weeks after immunization with egg albumin, guinea pigs are prepared for bronchoconstriction determination. One hour prior to antigen challenge, each animal is dosed orally with indomethacin and chlorpheniramine. Animals are anesthetized with sodium pentobarbital, the trachea cannulated and the animal artifically respired. Arachidonic acid is administered intravenously prior to antigen challenge. The resulting bronchoconstriction is recorded by the standard lung overflow procedure and the peak increase in intratracheal pressure (mm Hg) over a 10 minute observation period is recorded. Compounds are evaluated for their ability to prevent the increased intratracheal pressure in an experimental group of animals as compared to the medicated (indomethacin+chlorpheniramine+arachidonic acid) control group. The results are expressed in terms of percent inhibition or as ED50 values (efffective dose in 50% of the animals).

The mark [2] stands for this setting: IC50, L1 (lipoxygenase product 5,12-di-HETE formation), L1, 5,12-di-HETE, RBL-1 homogenate.
Where [3] appears, read: IC50, L2 (lipoxygenase product 5-HETE formation), L2, 5-HETE, RBL-1 homogenate.
Setting [4] is: read-out: In vitro % Inhibition, L1 (lipoxygenase product 5,12-di-HETE formation).
Setting [5] is: read-out: In vitro % Inhibition, L2 (lipoxygenase product 5-HETE formation).

One may read the IC50 as the concentration needed to halve the response being measured. A low value points to greater potency in that assay. One may read the inhibition as the drop in the measured response relative to a control, in per cent. Take `CCOC(=O)c1cc(OC)ccc1Nc1ccc(O)cc1` [Example 3d, Ethyl 2-(4-hydroxyphenylamino)-5-methoxybenzoate]: the results for the IC50 on cyclooxygenase, against lipoxygenase (setting [2]) and on lipoxygenase (setting [3]) were above 1000 nM, 110 nM and 100 nM, respectively. The values for the inhibition at 1 µM on cyclooxygenase, on lipoxygenase (setting [4]) and on lipoxygenase (setting [5]) were 18%, 90% and 91%, respectively. Besides, the “In vivo Guinea Pig % inhib. (increased intratracheal pressure, bronchoconstriction)” value in experiment [1] is reported as 42%.

For `CCOC(=O)c1ccccc1Nc1ccccc1O` [Example 1d, Ethyl 2-(2-hydroxyphenylamino)benzoate], the results for the 50% inhibitory concentration (IC50) against cyclooxygenase, against lipoxygenase (setting [2]) and at lipoxygenase (setting [3]) were 320 nM, 160 nM and 100 nM, respectively. Moreover, the inhibition at 1 µM on cyclooxygenase is 34%; at lipoxygenase (setting [4]) it was 95%; at lipoxygenase (setting [5]) it was 98%.

As for `CCOC(=O)c1ccccc1Nc1ccc(O)c(Cl)c1` [Example 5c, Ethyl 2-(3-chloro-4-hydroxyphenylamino)benzoate], the half-inhibitory concentration (IC50) is above 1000 nM against cyclooxygenase, 670 nM on lipoxygenase (setting [2]) and 300 nM against lipoxygenase (setting [3]). Besides, the inhibition at 1 µM amounted to 26% on cyclooxygenase, 90% at lipoxygenase (setting [4]) and 99% on lipoxygenase (setting [5]).

Take `CCOC(=O)c1ccccc1Nc1ccc(O)cc1` [Example 2b, Ethyl 2-(4-hydroxyphenylamino)benzoate]: the IC50 against cyclooxygenase was above 1000 nM; against lipoxygenase (setting [2]), 340 nM; on lipoxygenase (setting [3]) it was 250 nM. Moreover, the inhibition at 1 µM was determined as 19% at cyclooxygenase, 77% at lipoxygenase (setting [4]) and 93% on lipoxygenase (setting [5]). Also, the “In vivo Guinea Pig % inhib. (increased intratracheal pressure, bronchoconstriction)” value in experiment [1] turned out to be 38%.

With `CCOC(=O)c1ccccc1Nc1ccc(O)cc1C` [Example 4c, Ethyl 2-(4-hydroxy-2-methylphenylamino)benzoate], the inhibition at 1 µM on cyclooxygenase was determined as 0%; at lipoxygenase (L1, 5,12-di-HETE, dose of 1 μM, RBL-1 homogenate, 5 min preincubation, 15 min incubation at 37° C, read-out: In vitro % Inhibition, L1 (lipoxygenase product 5,12-di-HETE formation)), 60%; on lipoxygenase (L2, 5-HETE, dose of 1 μM, RBL-1 homogenate, 5 min preincubation, 15 min incubation at 37° C, read-out: In vitro % Inhibition, L2 (lipoxygenase product 5-HETE formation)), 76%.

Values taken from US4515980A, “Substituted aminobenzoates, their preparation and use” (Sterling Drug Inc., priority 1983, dated 1985).
